The values below are quoted from earlier work in patent US20230338413A1, “ORAL DELIVERY OF HEPARINS” (GUANGZHOU DAZHOU BIOMEDICINE LTD., priority 2021, published 2023).

As to `O=C([O-])CCCCCCCNC(=O)c1ccccc1O.[Na+]` [SNAC, sodium N-(8-(2-hydroxybenzoyl)amino)caprylate], the Effects on coagulation result (SNAC by itself, initial clinical studies) was “no effects on coagulation”. Besides, for the setting “human subjects, single oral dose: 30,000 USP Heparin Units alone or SNAC alone 1.4 to 10.5 g”, the “Measurements of anticoagulation (aPTT, TFPI and anti-Factors IIa and Xa levels)” value is on record as “did not change”.
